Measurements as given in patent US20190210996A1, “NOVEL COMPOUNDS” (GLAXOSMITHKLINE INTELLECTUAL PROPERTY DEVELOPMENT LIMITED, priority 2016, published 2019).

Target: T1, GAK (Homo sapiens, UniProt O14976)
T1 construct: endogenous in cells; host or cells: THP-1
T1 sequence (O14976 1-1311): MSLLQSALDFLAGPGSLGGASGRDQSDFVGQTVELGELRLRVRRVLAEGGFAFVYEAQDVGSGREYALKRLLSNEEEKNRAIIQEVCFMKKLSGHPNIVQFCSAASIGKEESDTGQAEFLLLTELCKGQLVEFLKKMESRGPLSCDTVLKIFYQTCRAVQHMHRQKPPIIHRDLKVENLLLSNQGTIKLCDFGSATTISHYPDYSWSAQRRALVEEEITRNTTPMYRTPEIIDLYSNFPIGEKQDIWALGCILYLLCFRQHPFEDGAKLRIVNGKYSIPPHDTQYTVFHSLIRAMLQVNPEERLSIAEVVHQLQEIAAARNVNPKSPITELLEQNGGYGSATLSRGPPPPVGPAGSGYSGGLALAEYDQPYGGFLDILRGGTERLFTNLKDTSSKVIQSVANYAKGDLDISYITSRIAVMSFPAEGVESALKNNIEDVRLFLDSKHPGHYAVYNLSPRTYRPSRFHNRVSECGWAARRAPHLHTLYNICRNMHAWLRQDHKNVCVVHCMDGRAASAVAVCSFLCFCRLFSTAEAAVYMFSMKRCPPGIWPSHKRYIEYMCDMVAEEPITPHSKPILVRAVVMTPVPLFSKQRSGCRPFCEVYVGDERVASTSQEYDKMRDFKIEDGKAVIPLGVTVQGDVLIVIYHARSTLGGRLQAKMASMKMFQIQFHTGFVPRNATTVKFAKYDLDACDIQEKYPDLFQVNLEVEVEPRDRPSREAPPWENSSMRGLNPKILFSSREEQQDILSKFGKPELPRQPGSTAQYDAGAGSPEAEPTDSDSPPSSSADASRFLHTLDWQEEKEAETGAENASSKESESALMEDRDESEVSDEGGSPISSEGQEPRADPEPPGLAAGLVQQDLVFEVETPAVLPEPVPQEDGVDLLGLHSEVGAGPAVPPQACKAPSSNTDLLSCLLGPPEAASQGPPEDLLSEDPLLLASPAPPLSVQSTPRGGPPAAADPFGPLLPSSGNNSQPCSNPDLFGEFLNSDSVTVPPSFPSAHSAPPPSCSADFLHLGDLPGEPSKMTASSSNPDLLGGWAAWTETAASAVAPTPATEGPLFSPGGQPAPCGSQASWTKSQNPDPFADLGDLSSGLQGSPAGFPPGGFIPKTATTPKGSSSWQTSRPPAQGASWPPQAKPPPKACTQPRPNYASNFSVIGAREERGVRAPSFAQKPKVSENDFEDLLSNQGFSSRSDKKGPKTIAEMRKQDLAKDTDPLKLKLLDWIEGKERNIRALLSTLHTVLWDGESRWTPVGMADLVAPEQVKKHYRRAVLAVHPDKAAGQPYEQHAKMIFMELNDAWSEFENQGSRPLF
Assay: Expression proteomics in THP-1 cells: GAK protein level
Type: cell-based
Protocol: THP-1 cells were seeded at a concentration of 3×10^6 cells in T175 flasks with 60 mL growth medium (RPMI1640+10% FBS). […] of a 10× compound solution prepared in growth medium (DMSO), CEREBLON_PROTAC) was added and the cells were treated for the indicated time points (6 or 24 h) at 37° C., 5% CO2. For harvesting the cells were collected into falcon tubes on ice, centrifuged and washed twice in cold PBS (Life technologies). After the last washing step the supernatant was removed and the pellets were snap-frozen in liquid N2 and stored at −80° C. and lysed in 2% SDS for 3 min at 95° C. in a thermomixer (Thermo Fisher Scientific), followed by digestion of DNA with Benzonase at 37° C. for 1.5 h. Lysate was cleared by centrifugation an protein concentration in supernatant was determined by BCA assay.
Leukemia 25, 89-100 (2011).
Samples were dried in vacuo and resuspended in 0.05% trifluoroacetic acid in water. Of the sample, 50% was injected into an Ultimate3000 nanoRLSC (Dionex, Sunnyvale, Calif.) coupled to a Q Exactive HF (Thermo Fisher Scientific). Peptides were trapped on a 5 mm×300 μm C18 column (Pepmap100, 5 μm, 300 Å, Thermo Fisher Scientific) in water with 0.05% TFA at 60° C. Separation was performed on custom 50 cm×[…] (ID) reversed-phase columns (Reprosil) at 55° C. Gradient elution was performed from 2% acetonitrile to 40% acetonitrile in 0.1% formic acid and 3.5% DMSO over 2 hours. Samples were online injected into Q-Exactive HF mass spectrometers operating with a data-dependent top 10 method. MS spectra were acquired by using 60.000 resolution and an ion target of 3×10^6. Higher energy collisional dissociation (HCD) scans were performed with 35% NCE at 30.000 resolution (at m/z 200), and the ion target settings was set to 2×10^5 so as to avoid coalescence (Werner, T. et al. Ion Coalescence of Neutron Encoded TMT 10-Plex Reporter Ions. Anal. Chem. 86, 3594-3601 (2014).
The first search was performed with 30 parts per million mass tolerance for peptide precursors and 30 mD (HCD) mass tolerance for fragment ions followed by a final search using recalibrated data with a 10 parts per million mass tolerance for peptide precursors and 20 mD (HCD) mass tolerance for fragment ions. Carbamidomethylation of cysteine residues and TMT modification of lysine residues were set as fixed modifications and methionine oxidation, and N-terminal acetylation of proteins and TMT modification of peptide N-termini were set as variable modifications. […]
Nat Biotech 29, 255-265 (2011). this measure is referred to as ion area Savitski, M. M. et al. Delayed Fragmentation and Optimized Isolation Width Settings for Improvement of Protein Identification and Accuracy of Isobaric Mass Tag Quantification on Orbitrap-Type Mass Spectrometers. […]

log2 rel. fc. to vehicle control (24 h 0.1 μM, n = 1): −1.13
log2 rel. fc. to vehicle control (24 h 0.1 μM, n = 2): −1.35
log2 rel. fc. to vehicle control (24 h 1 μM, n = 1): −0.93
log2 rel. fc. to vehicle control (24 h 1 μM, n = 2): −1.13
SMILES: CNC(=O)c1ccccc1Nc1nc(Nc2ccc(N3CCN(CCOCCOCCOCCOCC(=O)Nc4cccc5c4CN(C4CCC(=O)NC4=O)C5=O)CC3)cc2)ncc1Cl.O=CO (stereo not shown) [CEREBLON_PROTAC, 14-(4-(4-((5-Chloro-4-((2-(methylcarbamoyl)phenyl)amino)pyrimidin-2-yl)amino)phenyl)piperazin-1-yl)-N-(2-(2,6-dioxopiperidin-3-yl)-1-oxoisoindolin-4-yl)-3,6,9,12-tetraoxatetradecan-1-amide formate]
